Results reported in ChEMBL document CHEMBL1136434, “5-aryl-pyrazolo[3,4-b]pyridazines: potent inhibitors of glycogen synthase kinase-3 (GSK-3)” (Bioorg Med Chem Lett, 2003).

Biological target: Cyclin-dependent kinase 2 (Homo sapiens) (UniProt P24941)

SMILES | cKi
CCN1CCC(CC(=O)Nc2n[nH]c3nnc(-c4cccc(F)c4F)cc23)CC1 | 540 nM
CN(C)CCCC(=O)Nc1n[nH]c2nnc(-c3ccccc3)cc12 | 1700 nM

More lines, now with the values ahead:

cKi | SMILES
5 nM | O=C(Nc1n[nH]c2nnc(-c3cccc(F)c3F)cc12)C1CCCC1
5 nM | O=C(Nc1n[nH]c2nnc(-c3cccnc3)cc12)C1CC1
450 nM | CCN1CCC(C(=O)Nc2n[nH]c3nnc(-c4cccc(F)c4F)cc23)CC1
